Data as given in PMC4685510, “A Cell Biologist’s Field Guide to Aurora Kinase Inhibitors” (Frontiers in Oncology, 2015).
“Also recorded” adds a separate entry of the source. Where two headings read alike, the source gives them in different places.

How the values were obtained:
[1] = target: 363 human kinases (including Aurora A/B/C) (Homo sapiens, UniProt P53350); assay: biochemical; format: biochemical; conditions: PLK1; for remaining activity at 0.1 µM: 100 nM; for remaining activity at 0.1 µM / remaining activity at 0.5 µM: read-out: % Enzyme Activity (relative to DMSO controls)
Description: (§1) However, the Aurora A/B selectivity ratios derived from our in vitro and in vivo data can be compared to prioritize inhibitors.

[2] = target: T1, 363 human kinases (including Aurora A/B/C) (Homo sapiens, UniProt Q9UBE8); assay: biochemical; format: biochemical; conditions: NLK; for remaining activity at 0.1 µM: 100 nM; for remaining activity at 0.1 µM / remaining activity at 0.5 µM: read-out: % Enzyme Activity (relative to DMSO controls)
T1 sequence (Q9UBE8 1-527): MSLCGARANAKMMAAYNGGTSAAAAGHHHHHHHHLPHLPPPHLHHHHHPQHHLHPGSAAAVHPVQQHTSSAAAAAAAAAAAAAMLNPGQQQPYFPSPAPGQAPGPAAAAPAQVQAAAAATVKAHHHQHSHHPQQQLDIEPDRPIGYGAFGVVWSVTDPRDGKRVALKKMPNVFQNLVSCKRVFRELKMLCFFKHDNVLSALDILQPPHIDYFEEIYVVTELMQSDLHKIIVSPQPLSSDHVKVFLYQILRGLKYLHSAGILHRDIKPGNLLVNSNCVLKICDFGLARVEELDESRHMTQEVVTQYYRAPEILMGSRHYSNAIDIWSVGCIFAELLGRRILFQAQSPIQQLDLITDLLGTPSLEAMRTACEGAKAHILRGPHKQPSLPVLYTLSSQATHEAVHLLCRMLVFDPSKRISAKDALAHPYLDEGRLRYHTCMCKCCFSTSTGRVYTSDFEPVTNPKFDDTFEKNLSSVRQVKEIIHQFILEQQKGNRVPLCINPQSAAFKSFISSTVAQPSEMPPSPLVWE
Description: as §1

[3] = target: 363 human kinases (including Aurora A/B/C) (Homo sapiens, UniProt P36894); assay: biochemical; format: biochemical; conditions: ALK3/BMPR1A, [ATP] 1 µM; for remaining activity at 0.1 µM: 100 nM; for remaining activity at 0.1 µM / remaining activity at 0.5 µM: read-out: % Enzyme Activity (relative to DMSO controls)
Description: as §1

[4] = system: pH3(Ser 28) in HeLa cells; assay: Substrate phosphorylation immunofluorescence assay, pH3(Ser 28), HeLa; format: cell-based, human; conditions: for pHistone H3 (Ser28) IC50: 8 h inhibitor treatment
[5] = system: pH3(Ser 28) in RPE1 cells; assay: Substrate phosphorylation immunofluorescence assay, pH3(Ser 28), RPE1; format: cell-based, human
Description: After 8 h cells were fixed with 4% PFA for 20 min at room temperature. The fixed cells were washed with PBS. For immunostaining, cells were permeabilized and blocked with PBS containing 10% normal donkey serum (Jackson ImmunoResearch) and 0.1% Triton-X100 for 1 h at room temperature. Primary antibodies against phospho-LATS2 (Ser 83), phospho-histone H3(Ser 28), and anti-phospho-MPM2 (see Table S3 in Supplementary Material) were incubated for 1 h at room temperature. […] Cells were then washed twice with PBS containing 0.1% Triton-X100. […] Fifty fields per well were imaged with quadruplicate wells for each condition. Image analysis was done using the CV7000 image analysis software (Yokogawa Electric Corporation). Between 100 and 1,000 mitotic cells per condition were segmented applying object identification parameters to select for bright MPM2 labeling. Using a nuclear identifier protocol, minimum intensity thresholds were set for pLATS2(Ser 83) and the pH3(Ser 28) signals, and the resulting identified objects were eroded, dilated, and filtered for size by user-defined thresholds. […] The same thresholds were applied for all of the inhibitor-treated samples, which were processed, imaged, and analyzed in parallel with control DMSO-treated cells. Data were fit using a four-parameter, variable slope fit in Prism (GraphPad).

[6] = system: pLATS2(Ser 83) in HeLa cells; assay: Substrate phosphorylation immunofluorescence assay, pLATS2(Ser 83), HeLa; format: cell-based, human
Description: We employed the protocol described in Figure 3D to analyze substrate phosphorylation in HeLa cells following treatment with all 10 inhibitors in dose–response. Asynchronous cells were incubated with vehicle (DMSO) or different inhibitor doses for 8 h and then fixed and labeled with a mixture of three antibodies directed against pLATS2(Ser 83), pH3(Ser 28), and MPM2 [which detects mitotic phosphoepitopes; ([86])]. While both the anti-pLATS2(Ser 83) and MPM2 antibodies are mouse monoclonals, they are of different IgG subclasses [IgG2b for anti-pLATS2(Ser 83) and IgG1 for MPM2], and can thus be detected with subclass-specific secondary antibodies (Table S3 in Supplementary Material).
In control mitotic cells, pLATS2(Ser 83) is concentrated in foci around the spindle poles (Figure 3E; top row – green arrow) and pH3(Ser 28) is on the mitotic chromatin (Figure 3E; top row – red arrow). Selective kinase inhibition should result in loss of one signal but not the other, as illustrated by the example images for specific conditions in Figure 3E (middle and bottom rows). Cells were imaged in 4 channels to visualize pLATS2(Ser 83), pH3(Ser 28), MPM2, and DNA (labeled with Hoechst) and mitotic cells were segmented based on their bright MPM2 labeling (Figure 3E). Intensity and area thresholds were set to select the pLATS2(Ser 83) foci and the pH3(Ser 28)-labeled chromatin in their respective channels in DMSO-treated control cells and the same thresholds were applied for inhibitor-treated cells. The mean fluorescence intensity per pixel was measured to assess the activities of the kinases targeting these two substrate phosphorylation sites.
Twelve thousand HeLa cells, 10,000 U2OS cells, or 8,000 RPE1 cells were seeded into 96-well glass-bottom Sensoplates (Greiner) 16 h before inhibitor addition. Prior to seeding, the glass-bottom plates were coated with poly-L-lysine (Sigma). […] After 8 h cells were fixed with 4% PFA for 20 min at room temperature. The fixed cells were washed with PBS. For immunostaining, cells were permeabilized and blocked with PBS containing 10% normal donkey serum (Jackson ImmunoResearch) and 0.1% Triton-X100 for 1 h at room temperature. Primary antibodies against phospho-LATS2 (Ser 83), phospho-histone H3(Ser 28), and anti-phospho-MPM2 (see Table S3 in Supplementary Material) were incubated for 1 h at room temperature. […] Cells were then washed twice with PBS containing 0.1% Triton-X100. Image acquisition in four channels was performed using a CV7000 spinning disk confocal system (Yokogawa Electric Corporation) with a 40 × 0.95 NA U-PlanApo objective and 2560 × 2160 pixel sCMOS camera. […] Fifty fields per well were imaged with quadruplicate wells for each condition. Image analysis was done using the CV7000 image analysis software (Yokogawa Electric Corporation). Between 100 and 1,000 mitotic cells per condition were segmented applying object identification parameters to select for bright MPM2 labeling. Using a nuclear identifier protocol, minimum intensity thresholds were set for pLATS2(Ser 83) and the pH3(Ser 28) signals, and the resulting identified objects were eroded, dilated, and filtered for size by user-defined thresholds. For only the MPM2-positive mitotic cells, the mean fluorescence intensity of the identified pLATS2(Ser 83) and pH3(Ser 28) objects was measured, and the average intensity per cell per well was calculated. The same thresholds were applied for all of the inhibitor-treated samples, which were processed, imaged, and analyzed in parallel with control DMSO-treated cells. Data were fit using a four-parameter, variable slope fit in Prism (GraphPad). Primary and secondary antibody dilutions can be found in Table S3 in Supplementary Material.

[7] = system: pAuroraB(Thr 232), pH3(Ser 10), pH3(Ser 28) in HeLa cells; assay: Immunoblotting of pAuroraB(Thr 232), pH3(Ser 28) and pH3(Ser 10); format: cell-based, human; conditions: immunoblot; for Effect on pH3(Ser 10), pH3(Ser 28), pAuroraB(Thr 232): dose–response

363 human kinases (including Aurora A/B/C) (Homo sapiens, UniProt P36894), sequence (P36894 24-532): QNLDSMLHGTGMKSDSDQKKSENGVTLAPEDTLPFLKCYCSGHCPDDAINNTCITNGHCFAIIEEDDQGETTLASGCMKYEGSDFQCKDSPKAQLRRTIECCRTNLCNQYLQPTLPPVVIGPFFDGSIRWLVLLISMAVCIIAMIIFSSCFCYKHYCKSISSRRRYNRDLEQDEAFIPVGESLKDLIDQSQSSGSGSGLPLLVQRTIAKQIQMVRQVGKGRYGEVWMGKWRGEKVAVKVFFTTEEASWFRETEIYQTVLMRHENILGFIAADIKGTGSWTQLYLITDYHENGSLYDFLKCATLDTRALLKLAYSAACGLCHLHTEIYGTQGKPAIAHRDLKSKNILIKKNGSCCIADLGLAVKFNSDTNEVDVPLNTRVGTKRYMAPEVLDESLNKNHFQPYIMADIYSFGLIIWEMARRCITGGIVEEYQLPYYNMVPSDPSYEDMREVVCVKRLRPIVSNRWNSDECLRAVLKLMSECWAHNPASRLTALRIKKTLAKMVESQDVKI
363 human kinases (including Aurora A/B/C) (Homo sapiens, UniProt P53350), sequence (P53350 whole entry): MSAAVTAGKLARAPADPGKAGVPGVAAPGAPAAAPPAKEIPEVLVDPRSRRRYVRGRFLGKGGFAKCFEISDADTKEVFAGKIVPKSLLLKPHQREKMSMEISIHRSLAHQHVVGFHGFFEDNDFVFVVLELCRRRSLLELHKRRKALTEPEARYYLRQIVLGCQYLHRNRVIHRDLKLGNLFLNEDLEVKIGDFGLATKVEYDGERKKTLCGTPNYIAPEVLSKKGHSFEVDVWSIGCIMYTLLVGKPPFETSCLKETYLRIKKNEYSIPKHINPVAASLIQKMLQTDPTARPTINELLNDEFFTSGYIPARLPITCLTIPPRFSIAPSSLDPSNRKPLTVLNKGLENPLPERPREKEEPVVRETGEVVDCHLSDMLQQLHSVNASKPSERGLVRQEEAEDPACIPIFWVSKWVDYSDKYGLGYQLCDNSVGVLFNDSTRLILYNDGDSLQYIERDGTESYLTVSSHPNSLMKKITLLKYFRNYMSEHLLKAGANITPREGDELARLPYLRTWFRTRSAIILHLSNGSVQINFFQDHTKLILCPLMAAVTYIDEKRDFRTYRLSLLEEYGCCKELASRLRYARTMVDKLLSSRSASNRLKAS

| Compound | remaining activity at 0.1 µM [1] [%] | remaining activity at 0.5 µM ([1]; 500 nM) [%] | remaining activity at 0.1 µM [2] [%] | remaining activity at 0.5 µM ([2]; 500 nM) [%] | remaining activity at 0.1 µM [3] [%] | remaining activity at 0.5 µM ([3]; 500 nM) [%] | pHistone H3 (Ser28) IC50 [4] | Effect on pH3(Ser 10), pH3(Ser 28), pAuroraB(Thr 232) [7] | further results |
| --- | --- | --- | --- | --- | --- | --- | --- | --- | --- |
| O=C(O)[C@]1(Cc2cccc(Nc3nccs3)n2)CC[C@@H](Oc2cccc(Cl)c2F)CC1 [MK-5108] | 101 | 100 | 100 | 94.5 | 64.3 | 49.6 | NE (9 μM); also recorded: NE@9 μM | no effect | inhibition at 15 µM ([5]; Homo sapiens, RPE-1, read-out: pHistone H3 (Ser28) inhibition at highest concentration tested): 80%; IC50 ([6]; Homo sapiens, HeLa, 8 h, read-out: pLATS2 (Ser83) IC50, HeLa, 8 h inhibitor treatment): 600 to 800 nM; IC50 ([6]; read-out: pLATS2 (Ser83) IC50, HeLa, 8 h inhibitor treatment): 610 nM |
| O=C(c1cccc(Cl)c1F)N1CCN(Cc2cccc(Nc3nccs3)n2)CC1 [MK-8745] |  | 95.1 |  | 98.5 |  | 84.6 | NE (9 μM); also recorded: NE@9 µM | no effect | % Enzyme Activity (relative to DMSO controls) ([1]; 500 nM): 94.27%; % Enzyme Activity (relative to DMSO controls) ([2]; 500 nM): 97.25%; % Enzyme Activity (relative to DMSO controls) ([3]; 500 nM): 83.31%; pHistone H3 (Ser28) IC50 ([5]; RPE1, 8 h inhibitor treatment): NE@15 µM; IC50 ([6]; HeLa, 8 h inhibitor treatment, read-out: pLATS2 (Ser83) IC50): 610 nM; IC50 ([6]; Homo sapiens, HeLa, 8 h, HeLa, 8 h inhibitor treatment, read-out: pLATS2 (Ser83) IC50): 600 to 800 nM; Lowest concentration to maximally inhibit Aurora A in cells relative to lowest AZD1152-HQPA concentration to fully inhibit Aurora B ([6]; cellular assays): > 100 fold |
| CCn1cc(-c2ccnc3[nH]c(-c4cccc(CN(C)C)c4)cc23)c(-c2ccc(NC(=O)N(C)C)cc2)n1 [GSK1070916] | 96.5 |  | 95.7 |  | 87.6 |  |  | eliminated | Concentration completely eliminating pH3(Ser 28) labeling without affecting pLATS2(Ser 83) labeling [4]: < 100 nM; IC50 ([4]; Homo sapiens, 8 h, read-out: pHistone H3 (Ser28) IC50): 6 nM; IC50 ([5]; Homo sapiens, RPE-1, 8 h, read-out: pHistone H3 (Ser28) IC50): 15 nM; pLATS2 (Ser83) IC50 ([6]; HeLa, 8 h inhibitor treatment): NE (100 nM); also recorded: NE@100 nM; Concentration eliminating Aurora B activity without affecting pAuroraA (Thr 288) [7]: < 100 nM |
